Among the test systems are MDA-MB-231 breast; A498 renal; U251 CNS; UACC-257 melanoma; NCI-H23 lung; K-562 leukemia; SN12C renal; HS 578T breast; LOX IMVI melanoma; MOLT-4 leukemia.
Test in all cases: NCI-60 cell line screen, 48 h

Values joined by “and” are separate entries in the source; they are usually repeats but may differ in a detail not shown here. Equal values may be shown once.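 Values below derive from 48-hour exposures of cells grown in 96-well plates, with endpoints linearly interpolated between the two concentrations bracketing the appropriate inhibition level. At the GI50, growth is halved. The concentration for full growth arrest is given as TGI.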

With `CC(=O)N1c2ccccc2Sc2cc(C(O)(C(F)(F)F)C(F)(F)F)ccc21`, the TGI with MDA-MB-231 breast, with A498 renal, in the assay on U251 CNS, with UACC-257 melanoma, in the assay with NCI-H23 lung and in the assay on K-562 leukemia was greater than 10 µM in each case. Further, the TGI in the assay with SN12C renal, in the assay on HS 578T breast, in the assay on LOX IMVI melanoma and in the assay with MOLT-4 leukemia was greater than 10 µM throughout.

Turning to `COc1nc(C)cc2c(=O)n(-c3ccccc3)n(CCCN3CCN(c4ccc(Cl)cc4)CC3)c(=O)c12`, the GI50 in the assay with MDA-MB-231 breast is 39.5 µM; in the assay on A498 renal it was greater than 50 µM; in the assay on U251 CNS it was 32.1 µM; in the assay with NCI-H23 lung, greater than 50 µM; in the assay with K-562 leukemia, 35 µM; in the assay on SN12C renal, greater than 50 µM. Moreover, the GI50 is 27.4 µM with HS 578T breast, greater than 50 µM in the assay with LOX IMVI melanoma and greater than 50 µM in the assay with MOLT-4 leukemia. The TGI in the assay with MDA-MB-231 breast, in the assay on A498 renal, in the assay with U251 CNS, in the assay on NCI-H23 lung, in the assay with K-562 leukemia and in the assay on SN12C renal was greater than 50 µM each time. Also, the TGI with HS 578T breast, with LOX IMVI melanoma and with MOLT-4 leukemia was greater than 50 µM throughout.

Regarding `O=C1CCC2(C=C(Br)C(=O)C(Br)=C2)O1`, the GI50 with MDA-MB-231 breast is 15.4 µM; in the assay on A498 renal, 16.6 µM; in the assay with U251 CNS it was 14.7 µM; in the assay with UACC-257 melanoma, 3.52 µM; with NCI-H23 lung it was 12 µM; with K-562 leukemia, 2.81 µM. In addition, the GI50 with SN12C renal was 16.3 µM; with HS 578T breast, 20.4 µM; with LOX IMVI melanoma it was 2.53 µM; in the assay on MOLT-4 leukemia, 3.46 µM. Moreover, the TGI with MDA-MB-231 breast was 33.6 µM; in the assay with A498 renal, 30.3 µM; with U251 CNS, 28.9 µM; with UACC-257 melanoma, 9.28 µM; in the assay with NCI-H23 lung, 30 µM; in the assay with K-562 leukemia it was 21.7 µM. The TGI with SN12C renal is 35.3 µM; in the assay with HS 578T breast, 57.3 µM; in the assay with LOX IMVI melanoma it was 7.53 µM; in the assay with MOLT-4 leukemia it was greater than 23 µM.

Turning to `N=C(N)CCCCCCCCC(=N)N`, the GI50 in the assay on MDA-MB-231 breast was 63.3 µM; in the assay on A498 renal, 11.6 µM; in the assay on U251 CNS, 8.08 µM; in the assay on UACC-257 melanoma it was greater than 100 µM; with NCI-H23 lung it was 5.11 µM; with K-562 leukemia, 19.7 µM. The GI50 was 25.7 µM with SN12C renal, 29.2 µM with HS 578T breast, 31.8 µM in the assay with LOX IMVI melanoma and 46.4 µM in the assay with MOLT-4 leukemia. For the same compound, the TGI is greater than 100 µM in the assay with MDA-MB-231 breast; 68.5 µM with A498 renal; greater than 100 µM with U251 CNS; greater than 100 µM in the assay on UACC-257 melanoma; 70.4 µM with NCI-H23 lung; greater than 100 µM in the assay on K-562 leukemia. In addition, the TGI with SN12C renal, with HS 578T breast, in the assay with LOX IMVI melanoma and in the assay with MOLT-4 leukemia was greater than 100 µM in each case.

Take `CNC(=O)c1cccc(-c2ccc3c(N4CCOC[C@@H]4C)nc(N4CCOC[C@@H]4C)nc3n2)c1`: the GI50 in the assay on MDA-MB-231 breast was 0.181 µM and 0.168 µM and 0.184 µM; in the assay on A498 renal, 0.0183 µM and 0.0258 µM and < 0.0141 µM; with U251 CNS, 0.236 µM and 0.422 µM and 0.176 µM; with UACC-257 melanoma it was 0.0518 µM and 0.188 µM and 0.0589 µM; in the assay with NCI-H23 lung, 0.111 µM and 0.273 µM and 0.245 µM; in the assay with K-562 leukemia it was 0.499 µM and 0.372 µM and 0.445 µM. In addition, the GI50 is 0.132 µM and 0.121 µM and 0.129 µM with SN12C renal; 0.0627 µM and 0.0618 µM and 0.116 µM in the assay on HS 578T breast; 0.113 µM and 0.217 µM and 0.228 µM in the assay with LOX IMVI melanoma; 0.101 µM and 0.146 µM and 0.214 µM with MOLT-4 leukemia. Moreover, the TGI was 34.3 µM and > 10 µM and > 64 µM with MDA-MB-231 breast; 0.0827 µM and 0.142 µM and 0.0801 µM in the assay with A498 renal; greater than 100 µM in the assay on U251 CNS; 1.21 µM and 1.69 µM and 0.487 µM in the assay with UACC-257 melanoma; greater than 100 µM in the assay with NCI-H23 lung; greater than 100 µM with K-562 leukemia. In addition, the TGI in the assay with SN12C renal is greater than 100 µM; in the assay with HS 578T breast, 0.448 µM and 0.32 µM and 0.459 µM; with LOX IMVI melanoma it was 5.24 µM and > 4.47 µM and > 43.9 µM; in the assay with MOLT-4 leukemia it was 28.9 µM and > 10 µM and > 44.4 µM.

Consider `O=c1cc(-c2ccccc2)nc2n1CCN2Cc1ccccc1`, for which the GI50 is 32.2 µM in the assay on MDA-MB-231 breast; 10.1 µM with A498 renal; 30.5 µM in the assay with U251 CNS; 37.1 µM in the assay with UACC-257 melanoma; 34.7 µM in the assay on K-562 leukemia; 32.2 µM with SN12C renal. The GI50 in the assay on HS 578T breast is 26.9 µM; with LOX IMVI melanoma, 29.8 µM; in the assay on MOLT-4 leukemia, 20.2 µM. The TGI was greater than 100 µM in the assay on MDA-MB-231 breast; 34.2 µM in the assay on A498 renal; greater than 100 µM with U251 CNS; greater than 100 µM with UACC-257 melanoma; 90.3 µM in the assay with K-562 leukemia; greater than 100 µM in the assay on SN12C renal. For the same compound, the TGI in the assay on HS 578T breast is 81.7 µM; in the assay with LOX IMVI melanoma, greater than 100 µM; with MOLT-4 leukemia it was 79.5 µM.

Take `O=C1c2ccccc2-c2c1c1ccccc1c(=O)n2CCCN1CCOCC1`: the GI50 is 12 µM in the assay on MDA-MB-231 breast; 21.7 µM in the assay with A498 renal; 3.67 µM in the assay with U251 CNS; greater than 100 µM in the assay on UACC-257 melanoma; 15.4 µM in the assay on NCI-H23 lung; greater than 100 µM in the assay with K-562 leukemia. In addition, the GI50 is 21.3 µM in the assay on SN12C renal, 4.15 µM in the assay on HS 578T breast, 8.87 µM in the assay on LOX IMVI melanoma and 8.11 µM with MOLT-4 leukemia. Also, the TGI was 34.1 µM in the assay on MDA-MB-231 breast; 71.4 µM in the assay with A498 renal; 14.9 µM in the assay with U251 CNS; greater than 100 µM in the assay with UACC-257 melanoma; 41.5 µM in the assay on NCI-H23 lung; greater than 100 µM with K-562 leukemia. In addition, the TGI was greater than 100 µM in the assay with SN12C renal, 14.8 µM in the assay with HS 578T breast, 62.1 µM in the assay on LOX IMVI melanoma and greater than 100 µM with MOLT-4 leukemia.

As for `CCN(CC)CCCCCCCNc1c2ccc(Cl)cc2nc2ccc(OC)cc12`, the GI50 was 1.48 µM with MDA-MB-231 breast; 1.2 µM in the assay with A498 renal; 0.706 µM in the assay on U251 CNS; 1.27 µM in the assay with UACC-257 melanoma; 1.14 µM in the assay on NCI-H23 lung; 0.258 µM in the assay on K-562 leukemia. Moreover, the GI50 in the assay with SN12C renal is 1.22 µM; with HS 578T breast, 1.79 µM; with LOX IMVI melanoma, 0.275 µM; in the assay with MOLT-4 leukemia, 0.372 µM. In addition, the TGI in the assay with MDA-MB-231 breast stood at 3.86 µM; in the assay on A498 renal, 2.51 µM; with U251 CNS, 1.93 µM; with UACC-257 melanoma it was 3.08 µM; with NCI-H23 lung it was 2.84 µM; in the assay with K-562 leukemia, 0.835 µM. The TGI in the assay on SN12C renal worked out at 5.36 µM; with HS 578T breast it was 4.39 µM; with LOX IMVI melanoma it was 1.17 µM; in the assay with MOLT-4 leukemia, 2.32 µM.

Source of the values: PubChem BioAssay (NCI).
